Source: patent publication US20240101549A1, “N-(2-(4-CYANOTHIAZOLIDIN-3-YL)-2-OXOETHYL)-QUINOLINE-4-CARBOXAMIDES” (AstraZeneca AB, priority 2020, published 2024)
Converted amounts (≈) assume the structure as drawn.

Columns and labels:
[1] = Metabolic stability in human liver microsomes (HLM); type: in vitro ADME; settings: n = 1 or average of n = 2-3
Protocol: Metabolic stability in HLM was measured as described in J Comput Aided Mol Des 2015, 29, 795.

Rat Hepatocytes (rHep) = assay: Metabolic stability in rat hepatocytes (rHep); type: in vitro ADME; settings: n = 1 or geometric mean of n = 2-3
Kinetic solubility = type: physicochemical; settings: kinetic from dmso stock
Protocol: Kinetic solubility was measured as described in Comput Aided Mol Des 2015, 29, 795.

Caco-2 cell permeability = type: in vitro ADME; settings: human, Caco-2, AB intrinsic; n = 1 or average of n = 2-4; read-out: Caco2 AB Intrinsic Papp
Protocol: Caco-2 cell permeability was measured as described in Mol Pharm 2017, 14, 1601.

| SMILES | microsomal CLint [1] | rHep CLint (Rat Hepatocytes (rHep)) | solubility (Kinetic solubility) | Papp A→B (Caco-2 cell permeability) |
| --- | --- | --- | --- | --- |
| N#C[C@@H]1CSCN1C(=O)CNC(=O)c1ccnc2ccc(N3CC(O)C(F)(F)C3)cc12 (mixture of isomers) [Example 224, N-(2-((R)-4-Cyanothiazolidin-3-yl)-2-oxoethyl)-6-((RS)-3,3-difluoro-4-hydroxypyrrolidin-1-yl)quinoline-4-carboxamide] | < 3 µL/min/mg | <1 μL/min/1E6 | 50 µM (≈ 22.4 µg/mL) | 12 nm/s |
| CC1CCN(c2ccc3nccc(C(=O)NCC(=O)N4CSC[C@H]4C#N)c3c2)C1=O (single isomer, unassigned) [Example 201, N-(2-((R)-4-Cyanothiazolidin-3-yl)-2-oxoethyl)-6-((R*)-3-methyl-2-oxopyrrolidin-1-yl)quinoline-4-carboxamide] | < 3 µL/min/mg | <1 μL/min/1E6 | 90 µM (≈ 38.1 µg/mL) | 48 nm/s |
| N#C[C@@H]1CSCN1C(=O)CNC(=O)c1ccnc2ccc(N3C[C@@H](F)[C@H](F)C3)cc12 (single isomer, unassigned) [Example 214] | 27 µL/min/mg | – | 230 µM (≈ 99.2 µg/mL) | – |
